In patent US20220162191A1, “SMALL MOLECULE MODULATORS OF IL-17” (LEO PHARMA A/S, priority 2019, published 2022) one finds EC50 data, which are given here for 22 molecules.

The structures appear in SMILES notation.

The EC50 is the concentration that produces a half-maximal response.

This experiment deals with T1, human IL-17AA (Homo sapiens, UniProt Q16552).
T1 construct: host or cells: HEK (human embryonic kidney) cells
T1 sequence (Q16552 24-155) 1: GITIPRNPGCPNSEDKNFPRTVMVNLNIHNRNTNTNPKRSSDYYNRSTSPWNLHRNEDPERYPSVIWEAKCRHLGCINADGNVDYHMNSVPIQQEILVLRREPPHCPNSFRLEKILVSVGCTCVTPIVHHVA
T1 sequence (Q16552 24-155) 2: T1 sequence (Q16552 24-155) 1
The experiment can be described thus: IL-8 release assay in human epithelial keratinocytes adult (HEKa). Format: cell-based. The note with it: 3 ng/ml human IL-17AA + 10 ng/ml human TNFalpha, 68-72 h, IL-8 by HTRF, read-out: Rel EC50 L-8 release assay. A digest of the protocol: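 IL-8 secretion, quantified by HTRF (665/620 nm) as percent of controls, served as the readout after 68–72 h culture of HEKa cells with compound plus IL-17AA (3 ng/ml final) and TNF-alpha (10 ng/ml final). Four-parameter logistic curves gave relative IC50 and Emax.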
For orientation: Time-resolved FRET reads energy transfer from a long-lived donor to a nearby acceptor.
Regarding `Cc1n[nH]c(C)c1-c1ccc(NC(=O)[C@@H](NC(=O)c2ccnn2C)[C@@H]2CCc3ccc(-c4cnn(C(C)(C)C)c4)cc32)cc1` [Example 4, N-[(1S)-1-[(1R)-6-(1-tert-butylpyrazol-4-yl)indan-1-yl]-2-[4-(3,5-dimethyl-1H-pyrazol-4-yl)anilino]-2-oxo-ethyl]-2-methyl-pyrazole-3-carboxamide], the EC50 is below 100 nM.

As for `Cc1n[nH]c(C)c1-c1ccc(NC(=O)[C@@H](NC(=O)C2(F)CC2)[C@@H]2CCc3ccc(-c4cc(C(C)C)ncn4)cc32)cc1` [Example 353, N-[(1S)-2-[4-(3,5-dimethyl-1H-pyrazol-4-yl)anilino]-1-[(1R)-6-(6-isopropylpyrimidin-4-yl)indan-1-yl]-2-oxo-ethyl]-1-fluoro-cyclopropanecarboxamide], the EC50 fell in the range of 100 to 1000 nM.

As for `Cn1cncc1-c1ccc(NC(=O)C(Cc2cc(-c3ccnc(N4CC5(CNC5)C4)c3)ccc2Cl)NC(=O)c2ccnn2C)cc1` (stereo not shown) [Example 194, N-[1-[[2-chloro-5-[2-(2,6-diazaspiro[3.3]heptan-6-yl)-4-pyridyl]phenyl]methyl]-2-[4-(3-methylimidazol-4-yl)anilino]-2-oxo-ethyl]-2-methyl-pyrazole-3-carboxamide], the EC50 was in the range of 100 to 1000 nM.

Regarding `Cc1n[nH]cc1-c1ccc(NC(=O)C(NC(=O)c2ccnn2C)C(c2ccccc2)c2cccc(-c3ccc(=O)n(C(C)C)c3)c2)cc1` (single isomer, unassigned; diastereomer 4) [Example 238, N-[1-[[3-(1-isopropyl-6-oxo-3-pyridyl)phenyl]-phenyl-methyl]-2-[4-(3-methyl-1H-pyrazol-4-yl)anilino]-2-oxo-ethyl]-2-methyl-pyrazole-3-carboxamide (Diastereomer 4)], the EC50 lay within 100 to 1000 nM.

In the case of `COCCOCCn1cc(-c2cccc(-c3ccc(Cl)c(CC(NC(=O)c4ccnn4C)C(=O)Nc4ccc(-c5c(C)n[nH]c5C)cc4)c3)c2)nn1` (stereo not shown) [Example 312, N-[1-[[2-chloro-5-[3-[1-[2-(2-methoxyethoxy)ethyl]triazol-4-yl]phenyl]phenyl]methyl]-2-[4-(3,5-dimethyl-1H-pyrazol-4-yl)anilino]-2-oxo-ethyl]-2-methyl-pyrazole-3-carboxamide], the EC50 was in the range of 100 to 1000 nM.

As for `Cc1n[nH]c(C)c1-c1ccc(NC(=O)[C@H](Cc2cc(-c3ccnc(N4CC5COCC5C4)n3)ccc2Cl)NC(=O)C2(F)CC2)cc1` (stereo partly drawn) [Example 318, N-[(1S)-1-[[5-[2-(1,3,3a,4,6,6a-hexahydrofuro[3,4-c]pyrrol-5-yl)pyrimidin-4-yl]-2-chloro-phenyl]methyl]-2-[4-(3,5-dimethyl-1H-pyrazol-4-yl)anilino]-2-oxo-ethyl]-1-fluoro-cyclopropanecarboxamide], the EC50 was below 100 nM.

As for `Cc1n[nH]cc1-c1ccc(NC(=O)C(NC(=O)OC2CC2)C(c2ccccc2)c2cccc(-c3ccc(=O)n(C(C)C)c3)c2)cc1` (single isomer, unassigned; diastereomer 4) [Example 245, cyclopropyl N-[1-[[3-(1-isopropyl-6-oxo-3-pyridyl)phenyl]-phenyl-methyl]-2-[4-(3-methyl-1H-pyrazol-4-yl)anilino]-2-oxo-ethyl]carbamate (Diastereomer 4)], the EC50 was below 100 nM.

On to `CC(C)n1cc(-c2ccc(Cl)c(CC(NC(=O)c3ccnn3C)C(=O)Nc3ccc(-c4nncn4C)c(O)c3)c2)ccc1=O` (stereo not shown) [Example 69, N-[1-[[2-chloro-5-(1-isopropyl-6-oxo-3-pyridyl)phenyl]methyl]-2-[3-hydroxy-4-(4-methyl-1,2,4-triazol-3-yl)anilino]-2-oxo-ethyl]-2-methyl-pyrazole-3-carboxamide], for which the EC50 lay within 100 to 1000 nM.

For `CC(C)n1cc(-c2ccc(Cl)c(C[C@H](NC(=O)OCc3ccccc3)C(=O)Nc3ccc(-c4nncn4C)cc3)c2)ccc1=O` [Example 87, benzyl N-[(1S)-1-[[2-chloro-5-(1-isopropyl-6-oxo-3-pyridyl)phenyl]methyl]-2-[4-(4-methyl-1,2,4-triazol-3-yl)anilino]-2-oxo-ethyl]carbamate], the half-maximal effective concentration (EC50) is 100 to 1000 nM.

Take `Cc1ncn(C)c1-c1ccc(NC(=O)[C@@H](NC(=O)C2(F)CC2)[C@@H]2CCc3ccc(-c4ccnc(N5C[C@@H]6C[C@H]5CO6)c4)cc32)cc1O` [Example 358, N-[(1S)-2-[4-(3,5-dimethylimidazol-4-yl)-3-hydroxy-anilino]-1-[(1R)-6-[2-[(1S,4S)-2-oxa-5-azabicyclo[2.2.1]heptan-5-yl]-4-pyridyl]indan-1-yl]-2-oxo-ethyl]-1-fluoro-cyclopropanecarboxamide]: the EC50 is below 100 nM.

On to `Cc1cnn(C)c1-c1ccc(NC(=O)[C@@H](NC(=O)c2ccnn2C)[C@@H]2CCc3ccc(-c4ccnc(N5C[C@@H]6C[C@H]5CO6)c4)cc32)cc1` [Example 378, N-[(1S)-2-[4-(2,4-dimethylpyrazol-3-yl)anilino]-1-[(1R)-6-[2-[(1S,4S)-2-oxa-5-azabicyclo[2.2.1]heptan-5-yl]-4-pyridyl]indan-1-yl]-2-oxo-ethyl]-2-methyl-pyrazole-3-carboxamide], for which the EC50 was below 100 nM.

Regarding `Cc1n[nH]c(C)c1-c1ccc(NC(=O)[C@@H](NC(=O)c2ccnn2C)[C@@H]2CCc3ccc(-c4ccnc(C(C)(C)O)c4)cc32)cc1` [Example 16, N-[(1S)-2-[4-(3,5-dimethyl-1H-pyrazol-4-yl)anilino]-1-[(1R)-6-[2-(1-hydroxy-1-methyl-ethyl)-4-pyridyl]indan-1-yl]-2-oxo-ethyl]-2-methyl-pyrazole-3-carboxamide], the EC50 was below 100 nM.

`Cn1cncc1-c1ccc(NC(=O)C(Cc2cc(-c3ccnc(N4CCC[C@@H]4CO)c3)ccc2Cl)NC(=O)c2ccnn2C)cc1` (stereo partly drawn) [Example 189, N-[1-[[2-chloro-5-[2-[(2R)-2-(hydroxymethyl)pyrrolidin-1-yl]-4-pyridyl]phenyl]methyl]-2-[4-(3-methylimidazol-4-yl)anilino]-2-oxo-ethyl]-2-methyl-pyrazole-3-carboxamide]: the EC50 was in the range of 100 to 1000 nM.

On to `Cn1cncc1-c1ccc(NC(=O)[C@H](Cc2cc(-c3cccc([C@H]4CNCCO4)c3)ccc2Cl)NC(=O)c2ccnn2C)cc1` [Example 220, N-[(1S)-1-[[2-chloro-5-[3-[(2S)-morpholin-2-yl]phenyl]phenyl]methyl]-2-[4-(3-methylimidazol-4-yl)anilino]-2-oxo-ethyl]-2-methyl-pyrazole-3-carboxamide], for which the EC50 fell in the range of 100 to 1000 nM.

Regarding `Cc1cnn(C)c1-c1ccc(NC(=O)[C@H](Cc2cc(-c3ccc(=O)n(C(C)C)c3)ccc2Cl)NC(=O)c2conc2C)cc1` [Example 118, N-[(1S)-1-[[2-chloro-5-(1-isopropyl-6-oxo-3-pyridyl)phenyl]methyl]-2-[4-(2,4-dimethylpyrazol-3-yl)anilino]-2-oxo-ethyl]-3-methyl-isoxazole-4-carboxamide], the EC50 was below 100 nM.

With `Cn1cnnc1-c1ccc(NC(=O)C(Cc2cc(-c3cccc(C(C)(C)CO)c3)ccc2Cl)NC(=O)c2ccnn2C)cc1` (stereo not shown) [Example 164, N-[1-[[2-chloro-5-[3-(2-hydroxy-1,1-dimethyl-ethyl)phenyl]phenyl]methyl]-2-[4-(4-methyl-1,2,4-triazol-3-yl)anilino]-2-oxo-ethyl]-2-methyl-pyrazole-3-carboxamide], the EC50 lay within 100 to 1000 nM.

Take `Cc1n[nH]c(C)c1-c1ccc(NC(=O)[C@@H](NC(=O)c2ccnn2C)[C@@H]2CCc3ccc(-c4ccc(CN5CCOCC5)cc4)cc32)cc1` [Example 2, N-[(1S)-2-[4-(3,5-dimethyl-1H-pyrazol-4-yl)anilino]-1-[(1R)-6-[4-(morpholinomethyl)phenyl]indan-1-yl]-2-oxo-ethyl]-2-methyl-pyrazole-3-carboxamide]: the EC50 is below 100 nM.

With `Cc1n[nH]c(C)c1-c1ccc(NC(=O)[C@H](Cc2cc(-c3cccc(CN)c3)ccc2Cl)NC(=O)c2ccnn2C)cc1` [Example 61, N-[(1S)-1-[[5-[3-(aminomethyl)phenyl]-2-chloro-phenyl]methyl]-2-[4-(3,5-dimethyl-1H-pyrazol-4-yl)anilino]-2-oxo-ethyl]-2-methyl-pyrazole-3-carboxamide], the EC50 was in the range of 100 to 1000 nM.

Turning to `Cc1nn(C)c(C)c1-c1ccc(NC(=O)[C@@H](NC(=O)C2(F)CC2)[C@@H]2CCc3ccc(-c4ccnc(N5C[C@@H]6C[C@H]5CO6)c4)cc32)cc1` [Example 371, 1-fluoro-N-[(1S)-1-[(1R)-6-[2-[(1S,4S)-2-oxa-5-azabicyclo[2.2.1]heptan-5-yl]-4-pyridyl]indan-1-yl]-2-oxo-2-[4-(1,3,5-trimethylpyrazol-4-yl)anilino]ethyl] cyclopropanecarboxamide], the EC50 was below 100 nM.

For `Cc1n[nH]c(C)c1-c1ccc(NC(=O)[C@@H](NC(=O)c2ccnn2C)[C@@H]2CCc3ccc(-c4cnn(C(C)(C)CO)c4)cc32)cc1` [Example 11, N-[(1S)-2-[4-(3,5-dimethyl-1H-pyrazol-4-yl)anilino]-1-[(1R)-6-[1-(2-hydroxy-1,1-dimethyl-ethyl]pyrazol-4-yl]indan-1-yl]-2-oxo-ethyl]-2-methyl-pyrazole-3-carboxamide], the EC50 is below 100 nM.

Take `Cc1n[nH]c(C)c1-c1ccc(NC(=O)C(Cc2cc(-c3ccc(=O)n(C(C)C)c3)ccc2Cl)NC(=O)c2ccnn2C)cc1` (stereo not shown) [Example 94, N-[1-[[2-chloro-5-(1-isopropyl-6-oxo-3-pyridyl)phenyl]methyl]-2-[4-(3,5-dimethyl-1H-pyrazol-4-yl)anilino]-2-oxo-ethyl]-2-methyl-pyrazole-3-carboxamide]: the EC50 is below 100 nM.

Consider `Cc1ncn(C)c1-c1ccc(NC(=O)[C@H](Cc2cc(-c3ccnc(N4CCOCC4)c3)ccc2Cl)NC(=O)C2(F)CC2)cc1` [Example 224, N-[(1S)-1-[[2-chloro-5-(2-morpholino-4-pyridyl)phenyl]methyl]-2-[4-(3,5-dimethylimidazol-4-yl)anilino]-2-oxo-ethyl]-1-fluoro-cyclopropanecarboxamide], for which the EC50 is below 100 nM.
